Assays:
EcCARS = molecular target: T1, EcCARS (Escherichia coli, UniProt P21888); type: biochemical; conditions: for Persulfide generation by EcCARS with cysteine enantiomer as substrate: substrate enantioselectivity
T1 construct: His tag (inferred from nickel-NTA purification); made in house
From the text: The data are means ±s.d. […] Data represent means ±s.d.

mouse CARS1 = molecular target: T2, mouse CARS1 (Mus musculus, UniProt Q9ER72); experiment: CysSSH and CysSSSH biosynthesis by recombinant mouse CARS1
T2 sequence (Q9ER72 1-748 isoform Q9ER72-2): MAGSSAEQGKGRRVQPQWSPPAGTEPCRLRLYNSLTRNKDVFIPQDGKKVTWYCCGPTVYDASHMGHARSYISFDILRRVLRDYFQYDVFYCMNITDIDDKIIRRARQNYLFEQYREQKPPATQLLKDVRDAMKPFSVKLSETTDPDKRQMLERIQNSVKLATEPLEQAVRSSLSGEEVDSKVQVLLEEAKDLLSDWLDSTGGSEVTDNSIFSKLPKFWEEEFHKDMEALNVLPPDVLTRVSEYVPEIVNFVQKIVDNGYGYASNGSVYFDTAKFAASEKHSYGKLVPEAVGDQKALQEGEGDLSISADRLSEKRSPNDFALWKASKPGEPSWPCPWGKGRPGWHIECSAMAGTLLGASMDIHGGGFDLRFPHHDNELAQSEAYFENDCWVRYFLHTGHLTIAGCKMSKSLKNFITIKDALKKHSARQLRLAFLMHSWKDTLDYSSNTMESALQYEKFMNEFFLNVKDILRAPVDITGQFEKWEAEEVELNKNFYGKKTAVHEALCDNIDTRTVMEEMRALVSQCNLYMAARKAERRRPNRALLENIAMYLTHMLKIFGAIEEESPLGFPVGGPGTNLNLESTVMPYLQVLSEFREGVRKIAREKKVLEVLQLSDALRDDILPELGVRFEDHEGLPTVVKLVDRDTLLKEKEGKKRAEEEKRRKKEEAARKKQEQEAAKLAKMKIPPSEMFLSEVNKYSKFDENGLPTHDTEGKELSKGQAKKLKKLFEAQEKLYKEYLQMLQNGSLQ

human CARS2 = molecular target: T3, human CARS2 (Homo sapiens, UniProt Q9HA77); experiment: CysSSH and CysSSSH biosynthesis by recombinant human CARS2
T3 sequence (Q9HA77 1-564): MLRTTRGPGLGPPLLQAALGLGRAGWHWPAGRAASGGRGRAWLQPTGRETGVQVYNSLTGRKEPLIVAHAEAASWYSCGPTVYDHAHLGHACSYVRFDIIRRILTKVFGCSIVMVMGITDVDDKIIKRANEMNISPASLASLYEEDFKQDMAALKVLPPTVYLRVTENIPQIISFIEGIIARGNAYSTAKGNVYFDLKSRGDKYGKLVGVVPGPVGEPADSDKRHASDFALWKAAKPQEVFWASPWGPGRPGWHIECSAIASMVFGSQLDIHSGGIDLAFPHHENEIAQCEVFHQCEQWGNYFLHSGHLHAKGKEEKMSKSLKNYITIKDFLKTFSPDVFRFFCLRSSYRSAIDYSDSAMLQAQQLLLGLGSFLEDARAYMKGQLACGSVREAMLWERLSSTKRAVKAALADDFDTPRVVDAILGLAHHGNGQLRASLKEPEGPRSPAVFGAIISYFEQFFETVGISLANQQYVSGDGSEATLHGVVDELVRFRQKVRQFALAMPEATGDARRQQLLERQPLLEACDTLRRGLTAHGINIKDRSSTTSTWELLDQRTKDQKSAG

ADH5 = molecular target: T4, ADH5 (Homo sapiens, UniProt P11766); experiment: HPE-IAM labeling of ADH5 cysteine polysulfides, LC-ESI-MS/MS; conditions: treatment of ADH5
T4 construct: made in house; host or cells: Escherichia coli
From the text: Redox property of cysteine and protein polysulfides. CysSSHhas unique redox-active properties that distinguishes it from the cysteine (CysSH) thiol. […] Moreover, dialkylpolysulfides can also be nucleophilic and electrophile-mediated cleavage of S—S bonds is established28. The unique properties and reactivity of polysulfides allowed us to develop several analytical techniques aimed at determining endogenous production of LMW and protein-bound polysulfides (Supplementary FIG. 3). We first developed a convenient method for selective detection of polysulfidated proteins: the biotin-polyethylene glycol (PEG)-conjugated maleimide (biotin-PEG-MAL) labeling gel shift assay (PMSA; Supplementary FIG. 3a)15. […] We then used liquid chromatography-electrospray ionizationtandem mass spectrometry (LC-ESI-MS/MS) with 0-(4-hydroxyphenyl) ethyl iodoacetamide (HPE-IAM) as a trapping agent to identify and precisely quantify various hydropolysulfides, and also to verify the site specificity of polysulfidation as well as the number of sulfur atoms involved in proteins (Supplementary FIG. 5, and Supplementary Table 2). […]

[1] = test system: mitochondrial ETC in HEK293T cells; experiment: Effect of suppression of ETC on metabolic profiles of CysSSH; type: cell-based, human; conditions: HPE-IAM labeling LC-MS/MS
Protocol: Effect of suppression of ETC on metabolic profiles of CysSSH. The mito-chondrial ETC in HEK293T cells was inhibited either by a complex III inhibitor, antimycin A, or by elimination of mitochondrial DNA (mtDNA) induced by ethidium bromide. For the direct but partial ETC (complex III) inhibition, WT and CARS2 KO cells were treated with various concentrations of antimycin A for 1 h, followed by methanol extraction for measurement of CysSSH and its related sulfide derivatives by HPE-IAM labeling LC-ESI-MS/MS analysis as described earlier. […] The quantity of each sulfide produced from CARS2 in the cells was determined by subtracting the amount of each sulfide in CARS2 KO HEK293T cells from that in the WT cells, after quantification of each metabolite via HPE-IAM labeling LC-MS/MS analysis. Changes in the amounts of CysSSH (ACysSSH) and HS— (AHS-) induced by complex III inhibition by antimycin A or by mtDNA elimination in WT and CARS2 KO HEK293T cells were then calculated.

CSE = experiment: Kinetic parameters of recombinant CSE with L-cystine as substrate; type: biochemical, rat and human

T1 sequence (P21888 whole entry): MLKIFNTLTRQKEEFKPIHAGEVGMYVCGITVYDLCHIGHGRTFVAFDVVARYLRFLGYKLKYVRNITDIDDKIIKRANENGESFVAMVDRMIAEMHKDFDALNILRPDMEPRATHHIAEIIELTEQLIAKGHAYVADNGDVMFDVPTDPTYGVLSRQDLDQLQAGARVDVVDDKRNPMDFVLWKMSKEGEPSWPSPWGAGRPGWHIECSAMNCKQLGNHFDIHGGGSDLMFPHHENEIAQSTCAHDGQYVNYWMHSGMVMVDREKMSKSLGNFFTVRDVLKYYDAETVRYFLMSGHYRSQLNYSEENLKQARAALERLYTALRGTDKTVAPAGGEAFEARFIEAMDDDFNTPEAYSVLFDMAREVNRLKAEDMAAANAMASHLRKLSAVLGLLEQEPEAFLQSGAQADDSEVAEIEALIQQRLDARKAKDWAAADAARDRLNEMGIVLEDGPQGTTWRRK
T4 sequence (P11766 whole entry, species assumed): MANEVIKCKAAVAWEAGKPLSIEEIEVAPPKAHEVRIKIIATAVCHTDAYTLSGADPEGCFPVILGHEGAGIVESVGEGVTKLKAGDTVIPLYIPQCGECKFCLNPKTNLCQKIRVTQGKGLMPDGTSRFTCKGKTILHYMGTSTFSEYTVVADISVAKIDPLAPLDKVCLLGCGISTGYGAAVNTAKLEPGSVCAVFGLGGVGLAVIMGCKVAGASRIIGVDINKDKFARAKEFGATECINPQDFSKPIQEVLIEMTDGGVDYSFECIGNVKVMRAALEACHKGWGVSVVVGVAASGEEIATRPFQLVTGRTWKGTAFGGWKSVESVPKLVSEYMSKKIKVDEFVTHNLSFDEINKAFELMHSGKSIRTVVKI

Molecule: Nc1ncnc2c1ncn2[C@@H]1O[C@H](COP(=O)(O)OP(=O)(O)OP(=O)(O)O)[C@@H](O)[C@H]1O [ATP]
- Dependence of persulfide synthase activity of EcCARS on added factor (EcCARS): but not on ATP

Molecule: N[C@H](CS)C(=O)O [D-cysteine]
- Persulfide generation by EcCARS with cysteine enantiomer as substrate (EcCARS): but not D-cysteine demonstrated activity

Molecule: Cc1ncc(COP(=O)(O)O)c(C=O)c1O [pyridoxal phosphate]
- Dependence of CysS-(S)n-H producing activity on PLP (mouse CARS1; mouse CARS1): depended on the presence of PLP
- Dependence of persulfide synthase activity of EcCARS on added factor (EcCARS): depended partly
- Dependence of CysS-(S)n-H producing activity on PLP (human CARS2; human CARS2): depended on the presence of PLP
- Cysteine persulfide production in reaction mixture of cysteine and PLP alone (human CARS2; no enzyme, no >100 μM PLP): No appreciable cysteine persulfide production was detected

Molecule: CCN1C(=O)C=CC1=O [N-ethylmaleimide]
- HPE-IAM labeling of CysSH and CysSSH/SSSH of ADH5 (ADH5): completely abrogated

Molecule: N[C@@H](CS)C(=O)O [L-cysteine]
- Persulfide generation by EcCARS with cysteine enantiomer as substrate (EcCARS): demonstrated activity

Molecule: antimycin A
- Change in CysSSH [1]: significant increase
- Change in HS- production [1]: reduction

B1: CSE: cystathionine γ-lyase (cystathionase), recombinant rat and human (protein, UniProt P32929 1-405, looked up)
Cystathionine gamma-lyase: MQEKDASSQGFLPHFQHFATQAIHVGQDPEQWTSRAVVPPISLSTTFKQGAPGQHSGFEYSRSGNPTRNCLEKAVAALDGAKYCLAFASGLAATVTITHLLKAGDQIICMDDVYGGTNRYFRQVASEFGLKISFVDCSKIKLLEAAITPETKLVWIETPTNPTQKVIDIEGCAHIVHKHGDIILVVDNTFMSPYFQRPLALGADISMYSATKYMNGHSDVVMGLVSVNCESLHNRLRFLQNSLGAVPSPIDCYLCNRGLKTLHVRMEKHFKNGMAVAQFLESNPWVEKVIYPGLPSHPQHELVKRQCTGCTGMVTFYIKGTLQHAEIFLKNLKLFTLAESLGGFESLAELPAIMTHASVLKNDRDVLGISDTLIRLSVGLEDEEDLLEDLDQALKAAHPPSGSHS
modifications: also rat
notes: cystathionine γ-lyase (cystathionase), recombinant rat and human
- Km (CSE): > 200 µM

B2: mouse CARS1: recombinant cytosolic cysteinyl-tRNA synthetase (protein, UniProt Q9ER72 2-831, looked up)
Cysteine--tRNA ligase, …: AGSSAEQAADYRSILSISDEAARVQALDQHLSTRSYIQGYSLSQADVDVFRQLSAPPADSRLFHVARWFRHIEALLGGPQGRDEPCRLQASKGRRVQPQWSPPAGTEPCRLRLYNSLTRNKDVFIPQDGKKVTWYCCGPTVYDASHMGHARSYISFDILRRVLRDYFQYDVFYCMNITDIDDKIIRRARQNYLFEQYREQKPPATQLLKDVRDAMKPFSVKLSETTDPDKRQMLERIQNSVKLATEPLEQAVRSSLSGEEVDSKVQVLLEEAKDLLSDWLDSTGGSEVTDNSIFSKLPKFWEEEFHKDMEALNVLPPDVLTRVSEYVPEIVNFVQKIVDNGYGYASNGSVYFDTAKFAASEKHSYGKLVPEAVGDQKALQEGEGDLSISADRLSEKRSPNDFALWKASKPGEPSWPCPWGKGRPGWHIECSAMAGTLLGASMDIHGGGFDLRFPHHDNELAQSEAYFENDCWVRYFLHTGHLTIAGCKMSKSLKNFITIKDALKKHSARQLRLAFLMHSWKDTLDYSSNTMESALQYEKFMNEFFLNVKDILRAPVDITGQFEKWEAEEVELNKNFYGKKTAVHEALCDNIDTRTVMEEMRALVSQCNLYMAARKAERRRPNRALLENIAMYLTHMLKIFGAIEEESPLGFPVGGPGTNLNLESTVMPYLQVLSEFREGVRKIAREKKVLEVLQLSDALRDDILPELGVRFEDHEGLPTVVKLVDRDTLLKEKEGKKRAEEEKRRKKEEAARKKQEQEAAKLAKMKIPPSEMFLSEVNKYSKFDENGLPTHDTEGKELSKGQAKKLKKLFEAQEKLYKEYLQMLQNGSLQ
- CysS-(S)n-H producing activity (mouse CARS1; recombinant mouse CARS1): strong

— US11866752B2, “Cysteine polysulfidation and mitochondrial bioenergetics regulated by cysteinyl-tRNA synthetase” (Bio-Xcelerator, Inc., priority 2018, dated 2024)
